Tests used:
rat aortic rings = assay: Contractile response of rat aortic rings to phenylephrine; format: cell-based; settings: rings incubated 24 hours with corticosterone 10 nmol/L and antisense 3 μmol/L; graded phenylephrine
Protocol: Male Sprague-Dawley (1 50-200 g) rats were anesthetized with pentobarbital (50 mg/kg IP), and a median sternotomy was performed followed by the rapid removal of the thoracic aorta. The adventitia was removed, but the endothelium was left intact. The aorta was cut into 2-3 mm rings and individual rings were placed into a single well of a twenty four well culture plate and incubated at 37° C. under 95% O2-5% CO2. Each well contained 1 mL of DMEM/F12 containing 1% fetal bovine serum, streptomycin (100 μg/ml), penicillin (100 units/ml) and amphotericin (0.25 μg/ml). […]
For contraction measurements, aortic rings were suspended by tungsten wires with 1 g of tension and placed in a vessel bath containing serum free DMEM/F12 media at 37° C. aerated with 95% O2-5% CO2, at pH 7.4. […] The intensity of contraction was assessed by use of a Narishige micromanipulator and model FT03 force transducer (Grass Instrument Co. West Warwick, R.I.). Measurements were recorded on computer using the Labview 4.1 Virtual Instrument System (National Instruments, Austin, Tex.).

11β-HSD2 [1] = assay: Conversion of 3H-corticosterone to 11-dehydrocorticosterone by aortic rings, 11β-HSD2 antisense; format: cell-based, rat; settings: antisense 3 μM, 24 hrs
Protocol: (§1) The effects of 11β-HSD1 and 11β-HSD2 antisense on the inter-conversion of ^3H-corticosterone and ^3H-11-dehydro-corticosterone by aortic rings was also determined. Rings (2-3 mm) obtained in a similar manner as those in the contraction studies, were incubated in 1 ml DMEM/F12 media containing 1% FBS at 37° C. under 95% O2-5% CO2 in 24-well culture plates. Rings were incubated for 24 hours with: • (i) ^3H-corticosterone (10 nmol/L)±11β-HSD2 or 11β-HSD1 antisense (3 μmol/L); control groups received nonsense oligomers. The amount of ^3H-11-dehydro-corticqsterone in the incubation medium after 24 hrs was then measured. The effects of 11β-HSD1 antisense/nonsense were measured in quadruplicate (n=6 aortic rings per well) and the effects of 11β-HSD2 antisense/nonsense in duplicate (n=8 aortic rings per well), • (ii) ^3H-11-dehydro-corticosterone (10 nmol/L)±11β-HSD1 antisense (3 μmol/L); this experiment was performed in duplicate (n=10 aortic rings per well). Control groups were incubated with the appropriate nonsense oligomer. ^3H-corticosterone in the incubation medium after 24 hrs was then measured. In this experiment, aortic rings were also analyzed for ^3H-corticosterone content. Rings from duplicate incubations (total n=20) were blotted dry, pooled and homogenized in 50 % methanol using a Polytron. […]

11β-HSD2 [2] = assay: RT-PCR analysis of 11β-HSD2 expression in cultured vascular cells; format: cell-based; settings: cultured rat vascular endothelial and smooth muscle cells
From the text: (§2) Since 11β-HSD2 appears to exist only in endothelial cells, this observation supports a role for the action of glucocorticoids in affecting endothelial cell function. […] Further experiments to determine whether antisense oligomers down-regulate mRNA and protein expression of their respective 11β-HSD isoform under conditions in which they enhance contractile responses in aortic rings will be done.

11β-HSD1 [3] = assay: Conversion of 3H-corticosterone to 11-dehydrocorticosterone by aortic rings, 11β-HSD1 antisense; format: cell-based, rat; settings: 3H-corticosterone 10 nM, antisense 3 μM, 24 hrs
Protocol: as §1

11β-HSD1 [4] = assay: RT-PCR analysis of 11β-HSD1 expression in cultured vascular cells; format: cell-based; settings: cultured rat vascular endothelial and smooth muscle cells
From the text: as §2

11β-HSD1 Reductase = 11β-HSD1 Reductase (Rattus norvegicus, UniProt P16232); assay: Metabolism of 3H-11-dehydrocorticosterone back to corticosterone by aortic rings; format: cell-based; set-up: from tissue; host or cells: rat (Sprague-Dawley) thoracic aortic rings, endothelium intact; settings: 24 hours
Protocol: as §1

Sequence of 11β-HSD1 Reductase (P16232 whole entry): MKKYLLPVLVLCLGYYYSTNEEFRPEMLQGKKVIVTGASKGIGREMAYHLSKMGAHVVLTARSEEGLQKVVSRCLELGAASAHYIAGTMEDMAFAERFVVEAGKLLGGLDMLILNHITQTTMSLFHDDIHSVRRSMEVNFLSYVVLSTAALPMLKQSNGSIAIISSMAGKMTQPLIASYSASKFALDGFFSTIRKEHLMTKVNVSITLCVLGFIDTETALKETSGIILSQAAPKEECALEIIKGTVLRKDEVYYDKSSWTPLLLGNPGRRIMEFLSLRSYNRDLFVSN

In the case of “11β-HSD2 antisense: Antisense phosphorothioate oligonucleotide blocking 11β-HSD2 gene expression, 5′-AGGCCAGCGCTCCATGACTT-3′ (antisense AGGCCAGCGCTCCATGACTT; all phosphorothioate, sugars by position and methylation of C not given here)”, the “contractile response to phenylephrine compared to corticosterone plus nonsense oligomers” value (rat aortic rings) is reported as “statistically significant increase”, the “reduction in the conversion of corticosterone to 11-dehydrocorticosterone compared to 11β-HSD2 nonsense” value (11β-HSD2 [1]) is reported as 24% and the “expression of 11β-HSD2 isoform by RT-PCR” value (11β-HSD2 [2]) is reported as “down-regulate”.

In the case of “11β-HSD1 antisense: Antisense phosphorothioate oligonucleotide blocking 11β-HSD1 gene expression, 5′-CATAACTGCCGTCCAACAGC-3′ (antisense CATAACTGCCGTCCAACAGC; all phosphorothioate, sugars by position and methylation of C not given here)”, the “contractile response to phenylephrine compared to corticosterone plus nonsense oligomers” value (rat aortic rings) is reported as “significantly increased”, the “conversion of corticosterone to 11-dehydrocorticosterone, lower than with 11β-HSD1 nonsense oligomers” value (11β-HSD1 [3]) is reported as 21% and the “expression of 11β-HSD1 isoform by RT-PCR” value (11β-HSD1 [4]) is reported as “down-regulate”. For the same substance, the “production of 3H-corticosterone from 3H-11-dehydrocorticosterone, incubation media, compared to nonsense oligomers” value (11β-HSD1 Reductase; incubation media) was “markedly reduced” and the “production of 3H-corticosterone from 3H-11-dehydrocorticosterone, aortic ring tissue, compared to nonsense oligomers” value (11β-HSD1 Reductase; pooled aortic ring tissue) was “markedly lower”.

Reference: patent publication US20060148725A1, “Selective 11beta HSD inhibitors and methods of use thereof” (The Miriam Hospital, priority 2001, published 2006)
